As a reminder, the pIC50 is −log10 of the IC50, conventionally taken in molar units.

The results in this text go back to ChEMBL document CHEMBL1208724, “A new group of oxime carbamates as reversible inhibitors of fatty acid amide hydrolase” (Bioorg Med Chem Lett, 2010).

pIC50: −log10 of the molar value.

For this assay, the target named is T1, Fatty-acid amide hydrolase 1 (Mus musculus, UniProt O08914).
T1 sequence (O08914 whole entry): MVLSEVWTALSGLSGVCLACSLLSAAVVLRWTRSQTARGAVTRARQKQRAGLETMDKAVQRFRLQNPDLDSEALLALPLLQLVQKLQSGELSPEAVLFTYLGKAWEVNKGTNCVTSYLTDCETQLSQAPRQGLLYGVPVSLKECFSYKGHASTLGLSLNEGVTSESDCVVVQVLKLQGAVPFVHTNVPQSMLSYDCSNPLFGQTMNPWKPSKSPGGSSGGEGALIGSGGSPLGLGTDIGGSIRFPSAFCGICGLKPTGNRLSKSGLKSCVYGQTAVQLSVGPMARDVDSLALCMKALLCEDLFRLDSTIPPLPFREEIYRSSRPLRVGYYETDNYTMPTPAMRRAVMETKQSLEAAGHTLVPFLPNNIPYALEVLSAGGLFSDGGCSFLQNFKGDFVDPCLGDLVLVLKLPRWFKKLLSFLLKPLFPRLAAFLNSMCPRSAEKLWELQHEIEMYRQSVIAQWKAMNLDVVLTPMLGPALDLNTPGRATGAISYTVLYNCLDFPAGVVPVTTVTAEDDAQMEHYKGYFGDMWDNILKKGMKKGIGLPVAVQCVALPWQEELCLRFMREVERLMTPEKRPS
Kind of assay: Inhibition of mouse brain FAAH assessed as conversion of [3H-ethanolamine]AEA to [3H]ethanolamine by scintillation counting.
On to `C/C(=N\OC(=O)Nc1ccccc1)c1cccc(-c2cccc(C(N)=O)c2)c1`, for which the negative logarithm of the IC50 (pIC50) is 7.08.
Turning to `CCCCCCCCCCCCNC(=O)O/N=C(\C)c1cccc(-c2cccs2)c1`, the pIC50 is 6.94.
As to `C/C(=N\OC(=O)Nc1ccccc1)c1ccc(-c2cccs2)cc1`, the negative logarithm of the IC50 (pIC50) was 6.70.
Turning to `C/C(=N\OC(=O)Nc1ccccc1)c1cccc(-c2ccccc2)c1`, the negative logarithm of the IC50 (pIC50) is 7.16.
For the compound `C/C(=N\OC(=O)Nc1ccc(F)cc1)c1cccc(-c2ccccc2)c1`, the pIC50 is 7.77.
On to `C/C(=N\OC(=O)NCCCCCc1ccccc1)c1cccc(-c2ccccc2)c1`, for which the negative logarithm of the IC50 (pIC50) is 7.00.
On to `C/C(=N\OC(=O)Nc1cccc2ccccc12)c1cccc(-c2ccccc2)c1`, for which the negative logarithm of the IC50 (pIC50) is 8.00.
Turning to `C/C(=N\OC(=O)Nc1cccc2ccccc12)c1ccc(C2CCCCC2)cc1`, the negative-log IC50 (pIC50) is < 6.00.
With `C/C(=N\OC(=O)Nc1ccccc1)c1ccc(-c2ccccc2)cc1`, the negative-log IC50 (pIC50) was 6.12.
With `C/C(=N\OC(=O)Nc1cccc2ccccc12)c1ccc(-c2cccs2)s1`, the negative-log IC50 (pIC50) was < 6.00.
The result for `C/C(=N\OC(=O)N(C)C)c1ccc(-c2ccccc2)cc1` reads < 4.30.
For `C/C(=N\OC(=O)Nc1ccccc1)c1cccc(-c2cccc(C(=O)NC(=O)Nc3ccccc3)c2)c1`, the negative logarithm of the IC50 (pIC50) is < 4.60.
Regarding `C/C(=N\OC(=O)N(c1ccccc1)c1ccccc1)c1cccc(-c2ccccc2)c1`, the pIC50 is < 4.30.
With `COc1ccc(NC(=O)O/N=C(\C)c2cccc(-c3ccccc3)c2)cc1`, the pIC50 was 7.55.
The value for `C/C(=N\OC(=O)N1CCCCC1)c1cccc(-c2cccs2)c1` was 6.95; that for `C/C(=N\OC(=O)Nc1cccc2ccccc12)c1ccc(-c2ccccc2)cc1` was 6.40.
The value for `C/C(=N\OC(=O)Nc1cccc2ccccc12)c1ccc(-n2c(C)ccc2C)cc1` was < 6.00; that for `C/C(=N\OC(=O)Nc1ccc2sccc2c1)c1cccc(-c2ccccc2)c1` was 6.63.
For the compound `C/C(=N\OC(=O)N1CCCCC1)c1cccc(-c2ccccc2)c1`, the negative logarithm of the IC50 (pIC50) is 6.66.
